Organism: Danio rerio
Assay: Protection against neomycin-induced hair cell death in AB zebra fish larvae assessed as increase in hair cell survival preincubated for 1 hr followed by neomycin challenge for 1 hr by DASPEI staining-based epifluorescence dissecting microscopic method
Type: functional

| SMILES | EC50 [µM] |
| --- | --- |
| C[N+](C)(C)C1CCc2c(sc(NC(=O)Nc3ccc(Cl)cc3)c2C(N)=O)C1 (centres undefined) | 5.87 |
| CCN1CCc2c(sc(NC(=O)NCCN3CCOCC3)c2C(N)=O)C1 | > 25 |
| CN1[C@@H]2CC[C@H]1c1sc(NC(=O)Nc3ccc(Cl)cc3)c(C(N)=O)c1C2 (single isomer, unassigned) | 7.21 |
| CCCN1CCc2c(sc(NC(=O)Nc3ccc(Cl)cc3)c2C(N)=O)C1 | 3.5 |
| NC(=O)c1c(NC(=O)Nc2ccc(Cl)cc2)sc2c1[C@@H]1CC[C@H](C2)N1 | 0.03 |
| CCN1CCc2c(sc(N)c2C(N)=O)C1 | > 25 |
| CC(C)(C)C[N+]1(C)CCc2c(sc(NC(=O)Nc3ccc(Cl)cc3)c2C(N)=O)C1 (centres undefined) | 0.29 |
| NC(=O)c1c(NC(=O)Nc2ccc(Cl)cc2)sc2c1C[C@@H]1CC[C@H]2N1 | 0.27 |
| CCN1CCc2c(sc(NC(=O)Nc3ccc(Cl)cc3)c2C#N)C1 | > 25 |
| CCN1CCc2c(sc(NC(=O)Nc3ccc4ccccc4c3)c2C(N)=O)C1 | 1.78 |
| CCN1CCc2c(sc(NC(=O)Nc3ccc(-c4ccccc4)cc3)c2C(N)=O)C1 | 3.39 |
| CCN1CCc2c(sc(NC=O)c2C(N)=O)C1 | > 25 |
| C[N+]1(CC2CCCCC2)CCc2c(sc(NC(=O)Nc3ccc(Cl)cc3)c2C(N)=O)C1 (centres undefined) | 0.1 |
| C[N+]1(C2CCc3c(sc(NC(=O)Nc4ccc(Cl)cc4)c3C(N)=O)C2)CCC1 (centres undefined) | 3.92 |
